From PubChem BioAssay (NCI)
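Following 48 hours of exposure in 96-well plates, responses at five concentrations were used to interpolate endpoints linearly. Here, GI50 denotes the concentration required for 50% inhibition of growth. At the TGI there is no net growth.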

How the values were obtained:
Experiment in all cases: NCI tumour cell line growth inhibition, 48 h
MOLT-4 leukemia = test system: MOLT-4 leukemia
HOP-92 NSCLC = test system: HOP-92 NSCLC
TK-10 renal = test system: TK-10 renal
SR leukemia = test system: SR leukemia
SNB-75 CNS = test system: SNB-75 CNS
ACHN renal = test system: ACHN renal
M14 melanoma = test system: M14 melanoma
NCI-H522 lung = test system: NCI-H522 lung
NCI-H226 lung = test system: NCI-H226 lung
786-0 renal = test system: 786-0 renal
HS 578T breast = test system: HS 578T breast
NCI/ADR-RES ovarian = test system: NCI/ADR-RES ovarian
NCI-H23 lung = test system: NCI-H23 lung
SNB-19 CNS = test system: SNB-19 CNS
SK-MEL-28 melanoma = test system: SK-MEL-28 melanoma
SF-295 CNS = test system: SF-295 CNS
SK-MEL-5 melanoma = test system: SK-MEL-5 melanoma
K-562 leukemia = test system: K-562 leukemia
NCI-H460 lung = test system: NCI-H460 lung
DU-145 prostate = test system: DU-145 prostate
SF-539 CNS = test system: SF-539 CNS
OVCAR-3 ovarian = test system: OVCAR-3 ovarian
RPMI-8226 leukemia = test system: RPMI-8226 leukemia
RXF 393 renal = test system: RXF 393 renal
SK-MEL-2 melanoma = test system: SK-MEL-2 melanoma
MDA-MB-231 breast = test system: MDA-MB-231 breast
UACC-257 melanoma = test system: UACC-257 melanoma
A498 renal = test system: A498 renal
OVCAR-8 ovarian = test system: OVCAR-8 ovarian
HCT-116 colon = test system: HCT-116 colon
COLO 205 colon = test system: COLO 205 colon
HL-60(TB) leukemia = test system: HL-60(TB) leukemia
SF-268 CNS = test system: SF-268 CNS
CCRF-CEM leukemia = test system: CCRF-CEM leukemia
SK-OV-3 ovarian = test system: SK-OV-3 ovarian
SN12C renal = test system: SN12C renal
MCF7 breast = test system: MCF7 breast
BT-549 breast = test system: BT-549 breast
KM12 colon = test system: KM12 colon
MDA-N = test system: MDA-N
HCT-15 colon = test system: HCT-15 colon
EKVX NSCLC = test system: EKVX NSCLC
IGROV1 ovarian = test system: IGROV1 ovarian
UO-31 renal = test system: UO-31 renal
UACC-62 melanoma = test system: UACC-62 melanoma
CAKI-1 renal = test system: CAKI-1 renal
PC-3 prostate = test system: PC-3 prostate
OVCAR-4 ovarian = test system: OVCAR-4 ovarian
A549 NSCLC = test system: A549 NSCLC
MALME-3M melanoma = test system: MALME-3M melanoma
SW-620 colon = test system: SW-620 colon
OVCAR-5 ovarian = test system: OVCAR-5 ovarian
LOX IMVI melanoma = test system: LOX IMVI melanoma
HOP-62 NSCLC = test system: HOP-62 NSCLC
HCC-2998 colon = test system: HCC-2998 colon
U251 CNS = test system: U251 CNS
T-47D breast = test system: T-47D breast
MDA-MB-435 = test system: MDA-MB-435
HT29 colon = test system: HT29 colon

SMILES: O=[N+]([O-])c1nccn1CCCNc1ccnc2cc(Cl)ccc12
- TGI (MOLT-4 leukemia): > 100 µM
- TGI (HOP-92 NSCLC): > 21 µM
- TGI (TK-10 renal): > 11.7 µM
- TGI (SR leukemia): > 75.3 µM
- TGI (SNB-75 CNS): > 100 µM
- TGI (ACHN renal): > 17.8 µM
- TGI (M14 melanoma): > 100 µM
- TGI (NCI-H522 lung): 6.71 µM
- TGI (NCI-H226 lung): 10.8 µM
- TGI (786-0 renal): > 100 µM
- TGI (HS 578T breast): > 100 µM
- TGI (NCI/ADR-RES ovarian): > 100 µM
- TGI (NCI-H23 lung): > 100 µM
- TGI (SNB-19 CNS): > 64.2 µM
- TGI (SK-MEL-28 melanoma): > 100 µM
- TGI (SF-295 CNS): > 100 µM
- TGI (SK-MEL-5 melanoma): 10.9 µM
- TGI (K-562 leukemia): > 100 µM
- TGI (NCI-H460 lung): > 12 µM
- TGI (DU-145 prostate): > 100 µM
- TGI (SF-539 CNS): > 88.7 µM
- TGI (OVCAR-3 ovarian): > 100 µM
- TGI (RPMI-8226 leukemia): > 100 µM
- TGI (RXF 393 renal): > 23 µM
- TGI (SK-MEL-2 melanoma): > 95.7 µM
- TGI (MDA-MB-231 breast): > 100 µM
- TGI (UACC-257 melanoma): > 9.02 µM
- TGI (A498 renal): > 70.9 µM
- TGI (OVCAR-8 ovarian): > 100 µM
- TGI (HCT-116 colon): > 100 µM
- TGI (COLO 205 colon): > 100 µM
- TGI (HL-60(TB) leukemia): > 100 µM
- TGI (SF-268 CNS): > 65.6 µM
- TGI (CCRF-CEM leukemia): > 100 µM
- TGI (SK-OV-3 ovarian): > 100 µM
- TGI (SN12C renal): > 85.1 µM
- TGI (MCF7 breast): > 100 µM
- TGI (BT-549 breast): > 100 µM
- TGI (KM12 colon): > 26.6 µM
- TGI (MDA-N): > 100 µM
- TGI (HCT-15 colon): > 100 µM
- TGI (EKVX NSCLC): > 100 µM
- TGI (IGROV1 ovarian): > 100 µM
- TGI (UO-31 renal): > 88.4 µM
- TGI (UACC-62 melanoma): > 8.46 µM
- TGI (CAKI-1 renal): > 7.83 µM
- TGI (PC-3 prostate): > 100 µM
- TGI (OVCAR-4 ovarian): > 100 µM
- TGI (A549 NSCLC): > 100 µM
- TGI (MALME-3M melanoma): > 57.3 µM
- TGI (SW-620 colon): > 100 µM
- TGI (OVCAR-5 ovarian): > 100 µM
- TGI (LOX IMVI melanoma): > 100 µM
- TGI (HOP-62 NSCLC): > 92.4 µM
- TGI (HCC-2998 colon): 55.3 µM
- TGI (U251 CNS): > 100 µM
- TGI (T-47D breast): > 89.9 µM
- TGI (MDA-MB-435): > 100 µM
- TGI (HT29 colon): 99.6 µM

SMILES: O=C1C=CC2(C=C1)O[C@H](Cc1ccccc1)[C@@H](Cc1ccccc1)O2
- TGI (HOP-92 NSCLC): 2.71 µM
- TGI (TK-10 renal): 1.66 µM
- TGI (SR leukemia): 3.26 µM
- TGI (SNB-75 CNS): 7.23 µM
- TGI (ACHN renal): 0.958 µM
- TGI (M14 melanoma): 2.15 µM
- TGI (NCI-H522 lung): 0.42 µM
- TGI (NCI-H226 lung): 0.902 µM
- TGI (HS 578T breast): 2.42 µM
- TGI (NCI/ADR-RES ovarian): 1.11 µM
- TGI (NCI-H23 lung): 3.48 µM
- TGI (SNB-19 CNS): 6.47 µM
- TGI (SK-MEL-28 melanoma): 1.71 µM
- TGI (SF-295 CNS): 5.15 µM
- TGI (SK-MEL-5 melanoma): 1.76 µM
- TGI (K-562 leukemia): 5.58 µM
- TGI (NCI-H460 lung): 30.8 µM
- TGI (DU-145 prostate): 5.89 µM
- TGI (SF-539 CNS): 1.02 µM
- TGI (OVCAR-3 ovarian): 1.17 µM
- TGI (RPMI-8226 leukemia): 0.499 µM
- TGI (RXF 393 renal): 0.974 µM
- TGI (SK-MEL-2 melanoma): 3.33 µM
- TGI (MDA-MB-231 breast): 5.44 µM
- TGI (UACC-257 melanoma): 4.51 µM
- TGI (A498 renal): 16.6 µM
- TGI (OVCAR-8 ovarian): 0.503 µM
- TGI (COLO 205 colon): 2.99 µM
- TGI (HL-60(TB) leukemia): 6.52 µM
- TGI (SF-268 CNS): 2.48 µM
- TGI (CCRF-CEM leukemia): 0.585 µM
- TGI (SK-OV-3 ovarian): 13.7 µM
- TGI (SN12C renal): 3.01 µM
- TGI (MCF7 breast): 1.51 µM
- TGI (BT-549 breast): 0.563 µM
- TGI (KM12 colon): 4.51 µM
- TGI (MDA-N): 0.66 µM
- TGI (HCT-15 colon): 0.866 µM
- TGI (EKVX NSCLC): 1.76 µM
- TGI (IGROV1 ovarian): 0.583 µM
- TGI (UO-31 renal): 0.69 µM
- TGI (UACC-62 melanoma): 4.05 µM
- TGI (CAKI-1 renal): 2.27 µM
- TGI (PC-3 prostate): 3.34 µM
- TGI (OVCAR-4 ovarian): 1.69 µM
- TGI (A549 NSCLC): 18.7 µM
- TGI (MALME-3M melanoma): 4.77 µM
- TGI (SW-620 colon): 0.254 µM
- TGI (OVCAR-5 ovarian): 1.34 µM
- TGI (LOX IMVI melanoma): 0.824 µM
- TGI (HOP-62 NSCLC): 3.63 µM
- TGI (HCC-2998 colon): 11.1 µM
- TGI (U251 CNS): 2.86 µM
- TGI (T-47D breast): > 100 µM
- TGI (MDA-MB-435): 3.56 µM
- TGI (HT29 colon): 2.81 µM

SMILES: COc1ccccc1-c1cc(=O)c2cc(C)cnc2[nH]1
- TGI (MOLT-4 leukemia): > 100 µM
- TGI (HOP-92 NSCLC): > 100 µM
- TGI (TK-10 renal): > 100 µM
- TGI (SR leukemia): > 100 µM
- TGI (ACHN renal): > 100 µM
- TGI (M14 melanoma): > 100 µM
- TGI (NCI-H522 lung): > 100 µM
- TGI (NCI-H226 lung): > 100 µM
- GI50 (786-0 renal): 41.4 µM
- TGI (786-0 renal): > 100 µM
- TGI (HS 578T breast): > 100 µM
- TGI (NCI/ADR-RES ovarian): 47.1 µM
- TGI (NCI-H23 lung): > 100 µM
- TGI (SNB-19 CNS): > 100 µM
- TGI (SK-MEL-28 melanoma): > 100 µM
- GI50 (SF-295 CNS): 31.1 µM
- TGI (SF-295 CNS): > 100 µM
- GI50 (SK-MEL-5 melanoma): 20.4 µM
- TGI (SK-MEL-5 melanoma): > 100 µM
- TGI (K-562 leukemia): 61.3 µM
- GI50 (NCI-H460 lung): 32.6 µM
- TGI (NCI-H460 lung): > 100 µM
- TGI (DU-145 prostate): > 100 µM
- TGI (SF-539 CNS): > 100 µM
- GI50 (OVCAR-3 ovarian): 19.5 µM
- TGI (OVCAR-3 ovarian): 60.2 µM
- TGI (RPMI-8226 leukemia): > 100 µM
- TGI (RXF 393 renal): > 100 µM
- TGI (SK-MEL-2 melanoma): > 100 µM
- TGI (MDA-MB-231 breast): > 100 µM
- TGI (UACC-257 melanoma): > 100 µM
- TGI (A498 renal): 79.2 µM
- TGI (OVCAR-8 ovarian): > 100 µM
- GI50 (HCT-116 colon): 42.8 µM
- TGI (HCT-116 colon): > 100 µM
- TGI (COLO 205 colon): 52.5 µM
- GI50 (HL-60(TB) leukemia): 9.53 µM
- TGI (HL-60(TB) leukemia): 76.2 µM
- TGI (SF-268 CNS): > 100 µM
- TGI (CCRF-CEM leukemia): 55.2 µM
- TGI (SK-OV-3 ovarian): > 100 µM
- TGI (SN12C renal): > 100 µM
- TGI (MCF7 breast): > 100 µM
- TGI (BT-549 breast): > 100 µM
- TGI (KM12 colon): > 100 µM
- GI50 (MDA-N): 4.41 µM
- TGI (MDA-N): 24.9 µM
- TGI (HCT-15 colon): > 100 µM
- TGI (EKVX NSCLC): > 100 µM
- TGI (IGROV1 ovarian): > 100 µM
- TGI (UO-31 renal): > 100 µM
- TGI (UACC-62 melanoma): > 100 µM
- TGI (CAKI-1 renal): > 100 µM
- GI50 (PC-3 prostate): 27 µM
- TGI (PC-3 prostate): > 100 µM
- TGI (OVCAR-4 ovarian): > 100 µM
- TGI (A549 NSCLC): > 100 µM
- TGI (MALME-3M melanoma): > 100 µM
- TGI (SW-620 colon): > 100 µM
- TGI (OVCAR-5 ovarian): > 100 µM
- TGI (LOX IMVI melanoma): > 100 µM
- TGI (HOP-62 NSCLC): > 100 µM
- TGI (HCC-2998 colon): > 100 µM
- GI50 (U251 CNS): 27.8 µM
- TGI (U251 CNS): > 100 µM
- TGI (T-47D breast): > 100 µM
- TGI (MDA-MB-435): 27.3 µM
- TGI (HT29 colon): 84.5 µM
